Tests used:
[1] = DRUGMATRIX: Potassium Channel [KATP] radioligand binding (ligand: [3H] Glyburide); format: cell membranes, Membrane; details: hit-t15; Not Active = under 50% inhibition at 10 µM
[2] = molecular target: T1, 5-hydroxytryptamine receptor 2C (Homo sapiens, UniProt P28335); test: DRUGMATRIX: Serotonin (5-Hydroxytryptamine) 5-HT2C radioligand binding (ligand: [3H] Mesulergine); format: cell membranes, CHO-K1, Membrane; details: Not Active = under 50% inhibition at 10 µM
T1 sequence (P28335 whole entry): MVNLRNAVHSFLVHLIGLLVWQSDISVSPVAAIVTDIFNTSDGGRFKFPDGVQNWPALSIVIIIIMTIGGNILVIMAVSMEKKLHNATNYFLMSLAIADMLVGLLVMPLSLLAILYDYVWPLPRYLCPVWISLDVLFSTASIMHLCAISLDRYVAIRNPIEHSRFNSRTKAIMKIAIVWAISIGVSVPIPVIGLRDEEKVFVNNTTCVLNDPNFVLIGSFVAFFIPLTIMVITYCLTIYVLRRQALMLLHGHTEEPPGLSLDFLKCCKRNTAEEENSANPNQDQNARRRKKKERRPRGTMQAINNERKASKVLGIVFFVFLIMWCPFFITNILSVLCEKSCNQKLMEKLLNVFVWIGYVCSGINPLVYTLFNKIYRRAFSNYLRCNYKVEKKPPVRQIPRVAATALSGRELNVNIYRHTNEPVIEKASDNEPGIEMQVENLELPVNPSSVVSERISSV

[3] = molecular target: T2, Type-2 angiotensin II receptor (Homo sapiens, UniProt P50052); format: cell-based; details: cho-k1; further: in other assays of this panel Not Active means under 50% inhibition at 10 µM
T2 sequence (P50052 whole entry): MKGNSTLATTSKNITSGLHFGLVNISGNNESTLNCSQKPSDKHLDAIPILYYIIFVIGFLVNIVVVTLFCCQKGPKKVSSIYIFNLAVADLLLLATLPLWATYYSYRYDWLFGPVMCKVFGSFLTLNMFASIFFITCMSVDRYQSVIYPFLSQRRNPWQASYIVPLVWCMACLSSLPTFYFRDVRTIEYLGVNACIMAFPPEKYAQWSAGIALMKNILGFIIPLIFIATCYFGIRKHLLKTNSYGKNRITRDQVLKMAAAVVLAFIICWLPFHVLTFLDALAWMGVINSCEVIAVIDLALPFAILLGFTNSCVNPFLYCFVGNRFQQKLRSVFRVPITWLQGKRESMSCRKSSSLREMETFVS

[4] = molecular target: Aldo-keto reductase family 1 member B1 (Rattus norvegicus, UniProt P07943); test: biochemical; format: tissue-based, Lens of camera-type eye;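 further: inhibition of aldose reductase enzyme activity, measured with DL-glyceraldehyde as the substrate; in other assays of this panel Not Active means under 50% inhibition at 10 µM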
[5] = molecular target: T3, Cholecystokinin receptor type A (Homo sapiens, UniProt P32238); format: cell membranes, Membrane; details: 1321-n1; further: in other assays of this panel Not Active means under 50% inhibition at 10 µM
T3 sequence (P32238 whole entry): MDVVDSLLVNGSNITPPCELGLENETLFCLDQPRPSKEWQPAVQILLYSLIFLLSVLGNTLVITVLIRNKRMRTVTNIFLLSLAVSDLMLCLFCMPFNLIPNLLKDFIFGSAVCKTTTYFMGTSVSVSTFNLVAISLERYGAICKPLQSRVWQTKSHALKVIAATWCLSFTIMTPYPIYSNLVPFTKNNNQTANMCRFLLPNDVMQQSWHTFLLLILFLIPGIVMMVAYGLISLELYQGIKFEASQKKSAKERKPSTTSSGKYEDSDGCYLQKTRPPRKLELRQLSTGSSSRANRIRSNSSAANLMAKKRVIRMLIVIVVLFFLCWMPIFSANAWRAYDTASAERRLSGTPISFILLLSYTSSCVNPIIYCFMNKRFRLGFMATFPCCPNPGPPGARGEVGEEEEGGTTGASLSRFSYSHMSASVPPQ

[6] = molecular target: T4, B2 bradykinin receptor (Homo sapiens, UniProt P30411); format: cell membranes, Membrane; details: chem-1; further: in other assays of this panel Not Active means under 50% inhibition at 10 µM
T4 sequence (P30411 whole entry): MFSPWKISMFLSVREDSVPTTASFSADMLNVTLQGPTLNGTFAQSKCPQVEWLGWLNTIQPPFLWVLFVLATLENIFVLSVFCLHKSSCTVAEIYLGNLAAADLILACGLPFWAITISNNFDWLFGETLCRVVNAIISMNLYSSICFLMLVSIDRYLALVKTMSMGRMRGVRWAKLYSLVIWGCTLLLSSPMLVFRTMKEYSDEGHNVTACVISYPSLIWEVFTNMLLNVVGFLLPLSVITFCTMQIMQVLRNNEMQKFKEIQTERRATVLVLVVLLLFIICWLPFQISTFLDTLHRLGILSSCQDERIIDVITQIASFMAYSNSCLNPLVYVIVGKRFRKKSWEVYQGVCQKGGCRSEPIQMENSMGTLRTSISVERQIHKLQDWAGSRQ

[7] = DRUGMATRIX: Imidazoline I2, Central radioligand binding (ligand: [3H] Idazoxan); format: cell membranes, Rattus norvegicus, Wistar, Cerebral cortex, Membrane; details: Not Active = under 50% inhibition at 10 µM

Compound	IC50 [1]	Ki [1]	IC50 ([2]; cho-k1)	IC50 [3]	IC50 [4]	IC50 [5]	IC50 [6]	IC50 [7]	Ki [7]	IC50 ([2]; read-out: IC50)	Ki ([2]; read-out: Ki)	Ki [3]	IC50 ([4]; read-out: IC50)	Ki ([2]; cho-k1)	Ki [4]	Ki [5]	Ki [6]
CCOC(N)=O	Not Active	Not Active	Not Active	Not Active	Not Active	Not Active	Not Active	Not Active	Not Active								
COc1ccc(CN2CCNCC2)c(OC)c1OC [TRIMETAZIDINE]	Not Active	Not Active	Not Active	Not Active	Not Active	Not Active	Not Active	Not Active	Not Active								
CC(=O)O[C@H]1C[C@@H]2CC[C@@H]3[C@H](CC[C@@]4(C)[C@H]3C[C@H]([N+]3(C)CCCCC3)[C@@H]4OC(C)=O)[C@@]2(C)C[C@@H]1N1CCCCC1.[Br-] [VECURONIUM BROMIDE]	Not Active	Not Active	Not Active	Not Active	Not Active	Not Active	Not Active	Not Active	Not Active								
C[C@@H]1C[C@H]2[C@@H]3CCC4=CC(=O)C=C[C@]4(C)C3=CC[C@]2(C)[C@H]1C(=O)CN1CCN(c2cc(N3CCCC3)nc(N3CCCC3)n2)CC1 [TIRILAZAD]	Not Active	Not Active			Not Active	Not Active	Not Active	Not Active	Not Active	0.718 µM	0.376 µM	Not Active					
CC(C)OC(=O)C(C)(C)Oc1ccc(C(=O)c2ccc(Cl)cc2)cc1 [FENOFIBRATE]				Not Active	Not Active	Not Active	Not Active										
C[C@@H](O)[C@H]1C(=O)N2C(C(=O)O)=C(S[C@@H]3CN[C@H](C(=O)N(C)C)C3)[C@H](C)[C@H]12 [MEROPENEM]	Not Active	Not Active	Not Active	Not Active	Not Active	Not Active	Not Active	Not Active	Not Active								
CC[C@@H](CO)NC(=O)[C@@H]1C=C2c3cccc4c3c(cn4C)C[C@H]2N(C)C1 [METHYSERGIDE]				Not Active	Not Active	Not Active	Not Active			0.00209 µM	0.00109 µM						
CC(C)(C)NC[C@H](O)COc1nsnc1N1CCOCC1 [TIMOLOL]	Not Active	Not Active	Not Active	Not Active	Not Active	Not Active	Not Active	Not Active	Not Active								
CCN(CC)CC#CCOC(=O)C(O)(c1ccccc1)C1CCCCC1 (stereo unspecified) [OXYBUTYNIN]			Not Active	Not Active	Not Active	Not Active	Not Active										
O=c1[nH]c2ccccc2n1CCCN1CCC(n2c(=O)[nH]c3cc(Cl)ccc32)CC1 [DOMPERIDONE]				Not Active	Not Active	Not Active	Not Active										
CC1=C(CC(=O)O)c2cc(F)ccc2/C1=C\c1ccc(S(C)(=O)=O)cc1 [EXISULIND]	Not Active	Not Active	Not Active	Not Active		Not Active	Not Active	Not Active	Not Active				0.269 µM				
COc1ncnc(NS(=O)(=O)c2ccc(N)cc2)c1OC [SULFADOXINE]	Not Active	Not Active	Not Active	Not Active	Not Active	Not Active	Not Active	Not Active	Not Active								
CC(=O)Nc1nnc(S(N)(=O)=O)s1 [ACETAZOLAMIDE]			Not Active	Not Active	Not Active	Not Active	Not Active										
CO[C@H]1C[C@@H]2CC[C@@H](C)[C@@](O)(O2)C(=O)C(=O)N2CCCC[C@H]2C(=O)O[C@H]([C@H](C)C[C@@H]2CC[C@@H](O)[C@H](OC)C2)CC(=O)[C@H](C)/C=C(\C)[C@@H](O)[C@@H](OC)C(=O)[C@H](C)C[C@H](C)/C=C/C=C/C=C/1C [SIROLIMUS]	Not Active	Not Active	Not Active	Not Active	Not Active	Not Active	Not Active	Not Active	Not Active								
OCCN1CCN(CCCN2c3ccccc3Sc3ccc(C(F)(F)F)cc32)CC1 [FLUPHENAZINE]				Not Active	Not Active	Not Active	Not Active										
Cc1cn([C@H]2C[C@H](N=[N+]=[N-])[C@@H](CO)O2)c(=O)[nH]c1=O [ZIDOVUDINE]	Not Active	Not Active	Not Active	Not Active	Not Active	Not Active	Not Active	Not Active	Not Active								
THIMEROSAL	Not Active	Not Active	Not Active	Not Active	Not Active	Not Active	Not Active	Not Active	Not Active			Not Active		Not Active	Not Active	Not Active	Not Active
NC[C@H]1O[C@H](O[C@H]2[C@H](O)[C@@H](O[C@H]3O[C@H](CO)[C@@H](O)[C@H](N)[C@H]3O)[C@H](N)C[C@@H]2N)[C@H](N)C[C@@H]1O [TOBRAMYCIN]	Not Active	Not Active	Not Active	Not Active	Not Active	Not Active	Not Active	Not Active	Not Active								
O=P(O)(O)C(O)(Cc1cccnc1)P(=O)(O)O [RISEDRONIC ACID]	Not Active	Not Active	Not Active	Not Active	Not Active	Not Active	Not Active	Not Active	Not Active								
Nc1ccc(S(=O)(=O)Nc2nccs2)cc1 [SULFATHIAZOLE]	Not Active	Not Active	Not Active	Not Active	Not Active	Not Active	Not Active	Not Active	Not Active								
O=c1n(CCCN2CCN(c3cccc(Cl)c3)CC2)nc2ccccn12 [TRAZODONE]				Not Active	Not Active	Not Active	Not Active										
C[C@]12CC[C@H]3[C@@H](CCC4=CC(=O)CC[C@@]43C)[C@@H]1CC[C@@H]2O [TESTOSTERONE]			Not Active	Not Active	Not Active	Not Active	Not Active	Not Active	Not Active								
CN1C2CCCC1CC(NC(=O)c1nn(C)c3ccccc13)C2 (stereo unspecified) [GRANISETRON]			Not Active	Not Active	Not Active	Not Active	Not Active										

Source: ChEMBL document CHEMBL1909046, “DrugMatrix in vitro pharmacology data”
